The source of these data is patent publication US20150274657A1, “PYRROLIDINES” (MERCK PATENT GMBH, priority 2012, published 2015).

Like-named read-outs stand apart in the source and are kept apart here.

Assay [1] has as its target T1, human Nav1.6 ion channels (Homo sapiens, UniProt Q9UQD0).
T1 construct: host or cells: CHO
The experiment in a line: IonWorks electrophysiological assay on CHO cells expressing human Nav1.6. To be noted: CHO human Nav1.6 expressing cells. The format is cell-based. Here is the method: IonWorks electrophysiological assays were conducted to profile compounds for activity on CHO human Nav1.6 ion channels expressing cells (Milipore) using a unique protocol to assess the close (tonic, Pulse 1) and inactivated state inhibition (Pulse 2). The membrane potential is initially held at a hyperpolarized potential (−120 mV) to drive sodium channels into the resting closed state. The membrane is then reset to 0 mV voltage (for 2.5 seconds) following a brief 5 ms hyperpolarization to partially remove inactivation of non-blocked sodium channels; a short 20 ms test voltage step is applied to assess the magnitude of inhibition.
On the technique in general: The patch-clamp technique gives a direct electrical read-out from membranes.

The conditions of assay [2]: secondary progressive MS patients; over 2 years; p=0.02; cited from earlier work.
[3] abbreviates: closed (tonic) state inhibition (Pulse 1), read-out: Nav1.6 Tonic.
[4] abbreviates: inactivated state inhibition (Pulse 2), read-out: Nav1.6 Inactivated.

T1 sequence (Q9UQD0 whole entry): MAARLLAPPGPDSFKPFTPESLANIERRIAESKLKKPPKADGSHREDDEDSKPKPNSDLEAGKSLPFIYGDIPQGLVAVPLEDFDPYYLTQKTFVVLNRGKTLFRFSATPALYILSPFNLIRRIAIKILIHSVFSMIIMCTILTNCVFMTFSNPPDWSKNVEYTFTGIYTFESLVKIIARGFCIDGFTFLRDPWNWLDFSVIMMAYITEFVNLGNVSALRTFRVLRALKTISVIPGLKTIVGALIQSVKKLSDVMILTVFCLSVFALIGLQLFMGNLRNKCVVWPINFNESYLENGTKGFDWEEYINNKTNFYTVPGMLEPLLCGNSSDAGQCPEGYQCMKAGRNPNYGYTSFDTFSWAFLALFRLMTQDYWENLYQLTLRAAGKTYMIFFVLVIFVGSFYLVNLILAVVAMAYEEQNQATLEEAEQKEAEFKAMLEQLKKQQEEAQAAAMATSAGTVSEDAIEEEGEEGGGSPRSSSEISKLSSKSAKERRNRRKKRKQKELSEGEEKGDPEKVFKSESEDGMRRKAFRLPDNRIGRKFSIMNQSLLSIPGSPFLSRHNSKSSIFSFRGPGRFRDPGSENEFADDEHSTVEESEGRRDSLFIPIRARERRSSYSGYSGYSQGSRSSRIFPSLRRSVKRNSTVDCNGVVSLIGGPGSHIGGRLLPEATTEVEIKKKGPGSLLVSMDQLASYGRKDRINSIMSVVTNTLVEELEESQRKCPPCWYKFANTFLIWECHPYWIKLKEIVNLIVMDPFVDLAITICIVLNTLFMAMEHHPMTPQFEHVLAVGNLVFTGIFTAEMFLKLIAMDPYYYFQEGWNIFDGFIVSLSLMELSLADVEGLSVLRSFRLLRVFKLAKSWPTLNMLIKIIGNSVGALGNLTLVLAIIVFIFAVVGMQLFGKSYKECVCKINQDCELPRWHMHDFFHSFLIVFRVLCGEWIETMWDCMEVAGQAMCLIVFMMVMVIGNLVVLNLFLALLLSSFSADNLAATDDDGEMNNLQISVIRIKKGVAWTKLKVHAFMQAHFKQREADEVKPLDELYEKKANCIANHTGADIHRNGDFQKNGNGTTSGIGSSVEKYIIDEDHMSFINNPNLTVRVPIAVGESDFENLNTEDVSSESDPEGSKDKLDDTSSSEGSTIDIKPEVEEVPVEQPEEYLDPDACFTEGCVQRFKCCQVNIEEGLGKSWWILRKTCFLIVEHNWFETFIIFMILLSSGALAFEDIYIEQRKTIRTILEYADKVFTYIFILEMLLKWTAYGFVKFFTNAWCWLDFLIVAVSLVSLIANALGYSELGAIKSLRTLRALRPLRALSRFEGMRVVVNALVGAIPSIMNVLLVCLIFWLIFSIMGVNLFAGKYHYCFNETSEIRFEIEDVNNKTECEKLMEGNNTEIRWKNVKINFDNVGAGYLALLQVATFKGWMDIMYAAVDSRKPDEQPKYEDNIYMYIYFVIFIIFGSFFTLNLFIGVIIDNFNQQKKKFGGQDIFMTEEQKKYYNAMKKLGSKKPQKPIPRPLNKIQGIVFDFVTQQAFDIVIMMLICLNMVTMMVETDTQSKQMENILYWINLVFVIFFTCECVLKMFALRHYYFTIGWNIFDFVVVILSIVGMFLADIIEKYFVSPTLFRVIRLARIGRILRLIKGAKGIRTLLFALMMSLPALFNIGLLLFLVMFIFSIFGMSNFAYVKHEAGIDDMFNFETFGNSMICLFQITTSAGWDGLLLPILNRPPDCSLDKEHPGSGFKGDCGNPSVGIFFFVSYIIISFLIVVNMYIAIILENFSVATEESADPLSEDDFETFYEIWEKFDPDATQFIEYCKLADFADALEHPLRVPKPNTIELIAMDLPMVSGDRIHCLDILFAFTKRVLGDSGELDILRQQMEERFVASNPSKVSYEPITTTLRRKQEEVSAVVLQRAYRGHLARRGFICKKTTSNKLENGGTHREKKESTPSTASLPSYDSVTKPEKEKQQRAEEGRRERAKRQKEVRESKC

Consider `Cc1ccccc1CNC(=O)C1(C)CCN(Cc2cccc(Oc3ccccc3)c2)C1` (racemic) [Example 9, (±) 3-methyl-1-(3-phenoxy-benzyl)-pyrrolidine-3-carboxylic acid 2-methyl-benzylamide], for which the IC50 in assay [1] (setting [3]) is 14100 nM; in assay [1] (setting [4]) it was 615 nM.
The corresponding values for `CC1(C(=O)NCc2ccccn2)CCN(Cc2cccc(Oc3ccccc3)c2)C1` (racemic) [Example 12, (±) 3-methyl-1-(3-phenoxy-benzyl)-pyrrolidine-3-carboxylic acid (pyridin-2-ylmethyl)-amide] are more than 33000 nM and 228 nM.
On the same counts, the results for `CC1(C(=O)N2CCc3cccc(C(F)(F)F)c3C2)CCN(Cc2cccc(Oc3ccccc3)c2)C1` (racemic) [Example 13, (±) [3-methyl-1-(3-phenoxy-benzyl)-pyrrolidin-3-yl]-(8-trifluoromethyl-3,4-dihydro-1H-isoquinolin-2-yl)-methanone] are more than 33000 nM and 1970 nM.
The corresponding values for `CN(Cc1ccccn1)C(=O)C1(C)CCN(Cc2cccc(Oc3ccccc3)c2)C1` (racemic) [Example 14, (±) 3-methyl-1-(3-phenoxy-benzyl)-pyrrolidine-3-carboxylic acid methyl-pyridin-2-ylmethyl-amide] are 30300 nM and 473 nM.
As to `CC1(C(=O)N2CCOCC2)CCN(Cc2cccc(Oc3ccccc3)c2)C1` (racemic) [Example 15, (±) [3-methyl-1-(3-phenoxy-benzyl)-pyrrolidin-3-yl]-morpholin-4-yl-methanone], the IC50 in assay [1] (setting [3]) was 15500 nM; in assay [1] (setting [4]) it was 733 nM.
The corresponding values for `CC1(C(=O)NCc2cccnc2)CCN(Cc2cccc(Oc3ccccc3)c2)C1` (racemic) [Example 16, (±) 3-methyl-1-(3-phenoxy-benzyl)-pyrrolidine-3-carboxylic acid (pyridin-3-ylmethyl)-amide] are 13100 nM and 409 nM.
On the same counts, the results for `CC1(C(=O)NCc2ccncc2)CCN(Cc2cccc(Oc3ccccc3)c2)C1` (racemic) [Example 17, (±) 3-methyl-1-(3-phenoxy-benzyl)-pyrrolidine-3-carboxylic acid (pyridin-4-ylmethyl)-amide] are 16400 nM and 940 nM.
The corresponding values for `CCNC(=O)C1CCN(Cc2cccc(Oc3ccccc3)c2)C1` (racemic) [Example 18, (±) 1-(3-phenoxy-benzyl)-pyrrolidine-3-carboxylic acid ethylamide] are 23100 nM and 621 nM.
Consider `COCCNC(=O)C1CCN(Cc2cccc(Oc3ccccc3)c2)C1` (racemic) [Example 19, (±) 1-(3-phenoxy-benzyl)-pyrrolidine-3-carboxylic acid (2-methoxy-ethyl)-amide], for which the IC50 in assay [1] (setting [3]) stood at 30300 nM; in assay [1] (setting [4]) it was 1180 nM.
The corresponding values for `CN1CCN(C(=O)C2(C)CCN(Cc3cccc(Oc4ccccc4)c3)C2)CC1` (racemic) [Example 20, (±) [3-methyl-1-(3-phenoxy-benzyl)-pyrrolidin-3-yl]-(4-methyl-piperazin-1-yl)-methanone] are 8940 nM and 1910 nM.
As to `CC1(C(=O)NCc2ccccn2)CCN(Cc2csc(-c3ccccc3)n2)C1` (racemic) [Example 21, (±) 3-methyl-1-(2-phenyl-thiazol-4-ylmethyl)-pyrrolidine-3-carboxylic acid (pyridin-2-ylmethyl)-amide], the results for the IC50 in assay [1] (setting [3]) and in assay [1] (setting [4]) were more than 33000 nM and 1080 nM, respectively.
The corresponding values for `COC(=O)C1(C)CCN(Cc2cccc(OCC(C)C)c2)C1` (racemic) [Example 22, (±) 1-(3-isobutoxy-benzyl)-3-methyl-pyrrolidine-3-carboxylic acid methyl ester] are more than 33000 nM and 994 nM.
On the same counts, the results for `CC(C)COc1cccc(CN2CCC(C)(C(=O)NCc3ccccn3)C2)c1` (racemic) [Example 23, (±) 1-(3-isobutoxy-benzyl)-3-methyl-pyrrolidine-3-carboxylic acid (pyridin-2-ylmethyl)-amide] are more than 33000 nM and 445 nM.
On the same counts, the results for `CC(C)COc1cccc(CN2CCC(C)(C(=O)N(C)Cc3ccccn3)C2)c1` (racemic) [Example 25, (±) 1-(3-isobutoxy-benzyl)-3-methyl-pyrrolidine-3-carboxylic acid methyl-pyridin-2-ylmethyl-amide] are 19900 nM and 752 nM.
Take `CC1(C(=O)NCCc2ccccn2)CCN(Cc2cccc(Oc3ccccc3)c2)C1` (racemic) [Example 26, (±) 3-methyl-1-(3-phenoxy-benzyl)-pyrrolidine-3-carboxylic acid (2-pyridin-2-v1-ethyl)-amide]: the figures for the IC50 in assay [1] (setting [3]) and in assay [1] (setting [4]) were 10600 nM and 771 nM, respectively.
The corresponding values for `CC1CN(C(=O)C2CCN(Cc3cccc(Oc4ccccc4)c3)C2)CCO1` (racemic) [Example 27, (±) (2-methyl-morpholin-4-yl)-[1-(3-phenoxy-benzyl)-pyrrolidin-3-yl]-methanone] are more than 33000 nM and 1440 nM.
As for `O=C(NCCc1ccccn1)C1CCN(Cc2cccc(Oc3ccccc3)c2)C1` (racemic) [Example 28, (±) 1-(3-phenoxy-benzyl)-pyrrolidine-3-carboxylic acid (2-pyridin-2-yl-ethyl)-amide], the IC50 in assay [1] (setting [3]) came out at 19600 nM; in assay [1] (setting [4]), 1170 nM.
On the same counts, the results for `COC1CCCN(C(=O)C2CCN(Cc3cccc(Oc4ccccc4)c3)C2)C1` (racemic) [Example 29, (±) (3-methoxy-piperidin-1-yl)-[1-(3-phenoxy-benzyl)-pyrrolidin-3-yl]-methanone] are more than 33000 nM and 1890 nM.
In the case of `COC1CCN(C(=O)C2CCN(Cc3cccc(Oc4ccccc4)c3)C2)CC1` (racemic) [Example 30, (±) (4-methoxy-piperidin-1-yl)-[1-(3-phenoxy-benzyl)-pyrrolidin-3-yl]-methanone], the IC50 in assay [1] (setting [3]) is more than 33000 nM; in assay [1] (setting [4]) it was 1090 nM.
Turning to `CC1(C(=O)N2Cc3cccnc3C2)CCN(Cc2cccc(Oc3ccccc3)c2)C1` (racemic) [Example 31, (±) (5,7-dihydro-pyrrolo[3,4-b]pyridin-6-yl)-[3-methyl-1-(3-phenoxy-benzyl)-pyrrolidin-3-yl]-methanone], the IC50 in assay [1] (setting [3]) is more than 33000 nM; in assay [1] (setting [4]), 1740 nM.
On the same counts, the results for `CC1(C(=O)N2CCc3cccnc3C2)CCN(Cc2cccc(Oc3ccccc3)c2)C1` (racemic) [Example 32, (±) (5,8-dihydro-6H-[1,7]naphthyridin-7-yl)-[3-methyl-1-(3-phenoxy-benzyl)-pyrrolidin-3-yl]-methanone] are more than 33000 nM and 1670 nM.
On the same counts, the results for `COC1CCN(C(=O)C2CCN(Cc3cccc(Oc4ccccc4)c3)C2)C1` (racemic) [Example 33, (±) (3-methoxy-pyrrolidin-1-yl)-[1-(3-phenoxy-benzyl)-Pyrrolidin-3-yl]-methanone] are more than 33000 nM and 1520 nM.
Consider `O=C(NCc1ccccn1)C1CCN(Cc2cccc(Oc3ccccc3)c2)C1` (racemic) [Example 34, (±) 1-(3-phenoxy-benzyl)-pyrrolidine-3-carboxylic acid (Pyridin-2-ylmethyl)-amide], for which the figures for the IC50 in assay [1] (setting [3]) and in assay [1] (setting [4]) were 16200 nM and 353 nM, respectively.
The corresponding values for `CCNC(=O)[C@@]1(C)CCN(Cc2cccc(Oc3ccccc3)c2)C1` (single isomer, unassigned) [Example 10] are 20000 nM and 808 nM.
On to `CCNC(=O)[C@]1(C)CCN(Cc2cccc(Oc3ccccc3)c2)C1` (single isomer, unassigned) [Example 11], for which the IC50 in assay [1] (setting [3]) came out at 15700 nM; in assay [1] (setting [4]), 825 nM.
On the same counts, the results for `CCNC(=O)C1(C)CCN(Cc2ccc(-c3ccccc3)cc2)C1` (stereo not shown) [Example 1] are 21400 nM and 1770 nM.
The corresponding values for `COCCNC(=O)C1(C)CCN(Cc2cccc(Oc3ccccc3)c2)C1` (stereo not shown) [Example 2] are 15500 nM and 993 nM.
In the case of `CCCNC(=O)C1(C)CCN(Cc2cccc(Oc3ccccc3)c2)C1` (stereo not shown) [Example 4], the IC50 in assay [1] (setting [3]) was found to be 9420 nM; in assay [1] (setting [4]) it was 1030 nM.
On the same counts, the results for `CCCNC(=O)C1(C)CCN(Cc2ccc(-c3ccccc3)o2)C1` (stereo not shown) [Example 5] are 30700 nM and 785 nM.
On the same counts, the results for `CCCNC(=O)C1(C)CCN(Cc2ccc(OC)c3ccccc23)C1` (stereo not shown) [Example 6] are 23400 nM and 1860 nM.
On the same counts, the results for `CCCNC(=O)C1(C)CCN(Cc2cccc(OC(=O)c3ccccc3)c2)C1` (stereo not shown) [Example 7] are more than 33000 nM and 1610 nM.
Regarding `CCCNC(=O)C1(C)CCN(Cc2csc(-c3ccc(Cl)cc3)n2)C1` (stereo not shown) [Example 8], the figures for the IC50 in assay [1] (setting [3]) and in assay [1] (setting [4]) were 14800 nM and 1030 nM, respectively.
On the same counts, the results for `O=C(NCc1cccnc1)[C@@H]1CCN(Cc2cccc(Oc3ccccc3)c2)C1` [Example 24, (R)-1(3-phenoxy-benzyl)-pyrrolidine-3-carboxylic acid (pyridin-3-ylmethyl)-amide] are 29900 nM and 1300 nM.
As to `Nc1nnc(-c2cccc(Cl)c2Cl)c(N)n1` [Lamotrigine], the “deterioration of the timed 25-foot walk” value in assay [2] was “reduced the deterioration of the timed 25-foot walk”.
